PubChem BioAssay AID1963827 (Molecular Pharmacology Branch, DTP, NCI, 2024)

System: 994946-033-R-J1-PDC complex spheroid viability
Experiment: Anticancer human tumor 994946-033-R-J1-PDC patient-derived melanoma cell line growth inhibition [POLQ]
Settings: for IC50: curve of first compound; for viability, T/C: stronger effect = lower value
How it was run: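 PDC + HUVEC + MSC complex spheroids; POLQ inhibitors ± partner drugs; top conc. at/near clinical Cmax, else 10 microM (SN-38 1 microM), half-log dilutions; 37 degrees C, 5% CO2.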

[1] = second compound 0.0316 µM, first compound 0.0316 µM
[2] = second compound 0.0316 µM, first compound 0.1 µM
[3] = second compound 0.0316 µM, first compound 0.316 µM
[4] = second compound 0.0316 µM, first compound 1 µM
[5] = second compound 0.0316 µM, first compound 3.16 µM
[6] = second compound 0.0316 µM, first compound 10 µM
[7] = second compound 0.1 µM, first compound 0.0316 µM
[8] = second compound 0.1 µM, first compound 0.1 µM
[9] = second compound 0.1 µM, first compound 0.316 µM
[10] = second compound 0.1 µM, first compound 1 µM
[11] = second compound 0.1 µM, first compound 3.16 µM
[12] = second compound 0.1 µM, first compound 10 µM
[13] = second compound 0.316 µM, first compound 0.0316 µM
[14] = second compound 0.316 µM, first compound 0.1 µM
[15] = second compound 0.316 µM, first compound 0.316 µM
[16] = second compound 0.316 µM, first compound 1 µM
[17] = second compound 0.316 µM, first compound 3.16 µM
[18] = second compound 0.316 µM, first compound 10 µM
[19] = second compound 1 µM, first compound 0.0316 µM
[20] = second compound 1 µM, first compound 0.1 µM
[21] = second compound 1 µM, first compound 0.316 µM
[22] = second compound 1 µM, first compound 1 µM
[23] = second compound 1 µM, first compound 3.16 µM
[24] = second compound 1 µM, first compound 10 µM
[25] = second compound 3.16 µM, first compound 0.0316 µM
[26] = second compound 3.16 µM, first compound 0.1 µM
[27] = second compound 3.16 µM, first compound 0.316 µM
[28] = second compound 3.16 µM, first compound 1 µM
[29] = second compound 3.16 µM, first compound 3.16 µM
[30] = second compound 3.16 µM, first compound 10 µM
[31] = second compound 10 µM, first compound 0.0316 µM
[32] = second compound 10 µM, first compound 0.1 µM
[33] = second compound 10 µM, first compound 0.316 µM
[34] = second compound 10 µM, first compound 1 µM
[35] = second compound 10 µM, first compound 3.16 µM
[36] = second compound 10 µM, first compound 10 µM
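Also: spheroids exposed to drugs for 7 days.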
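For viability, T/C in this document: 100% = DMSO vehicle treated spheroids.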

`CCc1cc2c(N3CCc4c(cc(Cn5ccnc5)cc4-c4cn(C)nc4C(F)(F)F)C3=O)ccnc2c(OC)n1` + COC1C(OC(N)=O)C(O)C(Oc2ccc3c(O)c(NC(=O)c4ccc(O)c(CC=C(C)C)c4)c(=O)oc3c2C)OC1(C)C gave an IC50 (second compound 0.0316 µM) of over 10 µM, an IC50 (second compound 0.1 µM) of over 10 µM and an IC50 (second compound 0.316 µM) of over 10 µM. The IC50 (second compound 1 µM) was over 10 µM, the IC50 (second compound 3.16 µM) was over 10 µM and the IC50 (second compound 10 µM) was over 10 µM. For the same molecule, the viability, T/C [1] was 98.9%, the viability, T/C [2] was 72.2% and the viability, T/C [3] was 61.1%. The viability, T/C [4] was 73.3%, the viability, T/C [5] was 63.3% and the viability, T/C [6] was 70%. The viability, T/C [7] was 92.7%, the viability, T/C [8] was 77.8% and the viability, T/C [9] was 96.2%. The viability, T/C [10] was 78.8%, the viability, T/C [11] was 61.2% and the viability, T/C [12] was 81.2%. The viability, T/C [13] was 100%, the viability, T/C [14] was 98.3% and the viability, T/C [15] was 70.6%. The viability, T/C [16] was 66.1%, the viability, T/C [17] was 86.4% and the viability, T/C [18] was 63.7%. For the same molecule, the viability, T/C [19] was 91.6%, the viability, T/C [20] was 75.7% and the viability, T/C [21] was 94.1%. The viability, T/C [22] was 85.3%, the viability, T/C [23] was 68.1% and the viability, T/C [24] was 69%. For the same molecule, the viability, T/C [25] was 91.9%, the viability, T/C [26] was 77.3% and the viability, T/C [27] was 81.7%. It also gave a viability, T/C [28] of 73.8%, a viability, T/C [29] of 74.3% and a viability, T/C [30] of 54%. The viability, T/C [31] was 91.7%, the viability, T/C [32] was 77.6% and the viability, T/C [33] was 67.1%. For the same molecule, the viability, T/C [34] was 81.2%, the viability, T/C [35] was 64.3% and the viability, T/C [36] was 58.9%.

Work on `COc1cc2cc(C(=O)CCC(=O)O)sc2cc1OC` + COC1C(OC(N)=O)C(O)C(Oc2ccc3c(O)c(NC(=O)c4ccc(O)c(CC=C(C)C)c4)c(=O)oc3c2C)OC1(C)C yielded an IC50 (second compound 0.0316 µM) of over 10 µM, an IC50 (second compound 0.1 µM) of over 10 µM and an IC50 (second compound 0.316 µM) of over 10 µM. The IC50 (second compound 1 µM) was over 10 µM, the IC50 (second compound 3.16 µM) was over 10 µM and the IC50 (second compound 10 µM) was over 10 µM. The viability, T/C [1] was 91.3%, the viability, T/C [2] was 83% and the viability, T/C [3] was 98.6%. It also gave a viability, T/C [4] of 118%, a viability, T/C [5] of 98.8% and a viability, T/C [6] of 96.8%. It also gave a viability, T/C [7] of 89.9%, a viability, T/C [8] of 101% and a viability, T/C [9] of 109%. The viability, T/C [10] was 116%, the viability, T/C [11] was 86.8% and the viability, T/C [12] was 77.5%. It also gave a viability, T/C [13] of 93.5%, a viability, T/C [14] of 102% and a viability, T/C [15] of 84.5%. For the same molecule, the viability, T/C [16] was 82.4%, the viability, T/C [17] was 105% and the viability, T/C [18] was 86.4%. It also gave a viability, T/C [19] of 93.4%, a viability, T/C [20] of 90.8% and a viability, T/C [21] of 94.1%. The viability, T/C [22] was 76.9%, the viability, T/C [23] was 83.3% and the viability, T/C [24] was 100%. For the same molecule, the viability, T/C [25] was 101%, the viability, T/C [26] was 75.9% and the viability, T/C [27] was 106%. It also gave a viability, T/C [28] of 82.4%, a viability, T/C [29] of 87.5% and a viability, T/C [30] of 78.6%. For the same molecule, the viability, T/C [31] was 90.8%, the viability, T/C [32] was 109% and the viability, T/C [33] was 83.7%. It also gave a viability, T/C [34] of 71.4%, a viability, T/C [35] of 105% and a viability, T/C [36] of 80.6%.

`COc1ccc([C@@H](O)c2cc(-c3ncnc4cc(N5CCOCC5)ccc34)c(F)cc2Cl)nn1` + COC1C(OC(N)=O)C(O)C(Oc2ccc3c(O)c(NC(=O)c4ccc(O)c(CC=C(C)C)c4)c(=O)oc3c2C)OC1(C)C gave an IC50 (second compound 0.0316 µM) of 4.18 µM, an IC50 (second compound 0.1 µM) of 2.2 µM and an IC50 (second compound 0.316 µM) of 4.88 µM. For the same molecule, the IC50 (second compound 1 µM) was 6.13 µM, the IC50 (second compound 3.16 µM) was 7.07 µM and the IC50 (second compound 10 µM) was 9.07 µM. For the same molecule, the viability, T/C [1] was 101%, the viability, T/C [2] was 83% and the viability, T/C [3] was 83.5%. It also gave a viability, T/C [4] of 78.8%, a viability, T/C [5] of 49.4% and a viability, T/C [6] of 36.5%. For the same molecule, the viability, T/C [7] was 107%, the viability, T/C [8] was 74.5% and the viability, T/C [9] was 93%. It also gave a viability, T/C [10] of 73.5%, a viability, T/C [11] of 36.7% and a viability, T/C [12] of 41.8%. For the same molecule, the viability, T/C [13] was 93.3%, the viability, T/C [14] was 107% and the viability, T/C [15] was 85.8%. It also gave a viability, T/C [16] of 64%, a viability, T/C [17] of 62.3% and a viability, T/C [18] of 39.6%. For the same molecule, the viability, T/C [19] was 128%, the viability, T/C [20] was 90.6% and the viability, T/C [21] was 70.6%. The viability, T/C [22] was 68.7%, the viability, T/C [23] was 76% and the viability, T/C [24] was 39.5%. The viability, T/C [25] was 91.7%, the viability, T/C [26] was 88.7% and the viability, T/C [27] was 96.1%. For the same molecule, the viability, T/C [28] was 70.5%, the viability, T/C [29] was 62.6% and the viability, T/C [30] was 44.9%. For the same molecule, the viability, T/C [31] was 103%, the viability, T/C [32] was 90.4% and the viability, T/C [33] was 71.9%. The viability, T/C [34] was 65.5%, the viability, T/C [35] was 60% and the viability, T/C [36] was 47.4%.
